Earlier results, collected in patent US20240285640A1, “COMBINATION THERAPY FOR TREATING PIK3CA-MUTATED CANCER” (ADLAI NORTYE BIOPHARMA CO., LTD., priority 2020, published 2024).

Tests used:
[1] = system: breast cancer caused by PI3K/PIK3CA mutations; settings: patients; Campone M et al. 2018
[2] = system: advanced solid tumors; settings: phase I FIH, a variety of advanced solid tumors
[3] = system: colorectal cancer; settings: combined with radiotherapy and chemotherapy; Wyrwicz et al., ESMO2019
[4] = system: immunosuppressive cells in the tumor microenvironment; settings: preclinical studies; by inhibiting the PGE2/EP-4 signaling pathway

Structure (SMILES) | clinical efficacy [1] | clinical effect as single drug [2] | clinical efficacy [3] | reduction of immunosuppressive cells in the tumor microenvironment [4]
Nc1cc(C(F)(F)F)c(-c2cc(N3CCOCC3)nc(N3CCOCC3)n2)cn1 [AN2025, Buparlisib] | effective | – | – | –
C[C@H](NC(=O)c1c(C(F)F)nn(C)c1Oc1cccc(C(F)(F)F)c1)c1ccc(C(=O)O)cc1 [AN0025] | – | certain single-drug effect | strong clinical efficacy | effectively reduce
